This assay has as its target T1, methylenetetrahydrofolate dehydrogenase 1-like (MTHFD1L) (Homo sapiens, UniProt Q6UB35).
T1 construct: MTHFD1L (68–978 AA), recombinant from E. coli, MBP tag cleaved with thrombin
T1 sequence (Q6UB35 68-978): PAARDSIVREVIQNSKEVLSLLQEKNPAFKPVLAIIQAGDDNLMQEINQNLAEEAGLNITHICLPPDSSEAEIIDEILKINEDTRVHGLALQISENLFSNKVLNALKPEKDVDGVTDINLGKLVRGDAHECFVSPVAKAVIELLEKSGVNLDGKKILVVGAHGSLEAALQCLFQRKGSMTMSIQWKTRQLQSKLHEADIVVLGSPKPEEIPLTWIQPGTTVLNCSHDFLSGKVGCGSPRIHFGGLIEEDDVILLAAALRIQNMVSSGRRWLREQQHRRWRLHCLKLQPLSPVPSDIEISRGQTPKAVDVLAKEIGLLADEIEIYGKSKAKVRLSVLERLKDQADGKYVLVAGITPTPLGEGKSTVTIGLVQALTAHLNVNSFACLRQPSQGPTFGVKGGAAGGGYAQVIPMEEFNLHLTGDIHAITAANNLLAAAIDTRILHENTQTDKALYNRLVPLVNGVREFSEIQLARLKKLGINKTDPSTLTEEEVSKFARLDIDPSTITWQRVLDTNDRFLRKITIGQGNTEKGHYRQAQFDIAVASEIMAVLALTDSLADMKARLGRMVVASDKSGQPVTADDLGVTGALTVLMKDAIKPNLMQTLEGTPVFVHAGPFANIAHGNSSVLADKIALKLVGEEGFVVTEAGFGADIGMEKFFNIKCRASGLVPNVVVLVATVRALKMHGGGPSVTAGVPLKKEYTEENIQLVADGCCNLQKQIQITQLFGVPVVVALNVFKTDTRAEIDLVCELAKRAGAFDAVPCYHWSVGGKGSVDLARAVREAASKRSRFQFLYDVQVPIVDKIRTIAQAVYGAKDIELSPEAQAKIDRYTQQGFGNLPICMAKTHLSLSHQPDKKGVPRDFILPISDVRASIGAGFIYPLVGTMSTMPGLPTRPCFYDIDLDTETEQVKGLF
Put plainly: SPR (Biacore T200, steady-state affinity); supported by NMR STD, DARTS and ABPP competition. The assay is classed as binding.

Data on one compound can be found in article PMC11965064, “Identification and verification of methylenetetrahydrofolate dehydrogenase 1-like protein as the binding target of natural product pseudolaric acid A” (Natural Products and Bioprospecting, 2025).

Structures are written as SMILES. pKd: −log10 of the molar value.

Regarding `CC(=O)O[C@]12CCC(C)=CC[C@]13CC[C@H]2[C@@](C)(/C=C/C=C(\C)C(=O)O)OC3=O` [PAA, pseudolaric acid A], the pKd is roughly 5.39.
